Results from patent US20230257385A1, “SALT AND SOLID FORMS OF TABERNANTHALOG” (priority 2021, published 2023).

Columns and labels:
[1] = Calibration curve of non-ionized Tabernanthalog / HPLC sample diluent selection; assay type: physicochemical; settings: acetonitrile/water
Source text: Separate portions of Tabernanthalog (native) were weighed out into aluminum boats and were charged to the relevant volumetric flasks. […] Peak areas of the calibrants were plotted against concentration to generate the corresponding calibration curve with slope 27622 and R^2 0.9917 (FIG. 437).
It is noted that tabernanthalog is insoluble in typical HPLC sample diluents, acetonitrile/water. Therefore, DMSO and water were investigated as sample diluents.
Thus, DMSO/water (1/1, v/v) was selected as the appropriate diluent composition to perform the study and generate the calibration curve, for the SIF panel solubility.

5-HT2A = 5-HT2A (Homo sapiens, UniProt P28223); settings: reported by Dong et al., Olson et al., Cameron et al.; cited from earlier work
Chain of 5-HT2A (P28223 whole entry): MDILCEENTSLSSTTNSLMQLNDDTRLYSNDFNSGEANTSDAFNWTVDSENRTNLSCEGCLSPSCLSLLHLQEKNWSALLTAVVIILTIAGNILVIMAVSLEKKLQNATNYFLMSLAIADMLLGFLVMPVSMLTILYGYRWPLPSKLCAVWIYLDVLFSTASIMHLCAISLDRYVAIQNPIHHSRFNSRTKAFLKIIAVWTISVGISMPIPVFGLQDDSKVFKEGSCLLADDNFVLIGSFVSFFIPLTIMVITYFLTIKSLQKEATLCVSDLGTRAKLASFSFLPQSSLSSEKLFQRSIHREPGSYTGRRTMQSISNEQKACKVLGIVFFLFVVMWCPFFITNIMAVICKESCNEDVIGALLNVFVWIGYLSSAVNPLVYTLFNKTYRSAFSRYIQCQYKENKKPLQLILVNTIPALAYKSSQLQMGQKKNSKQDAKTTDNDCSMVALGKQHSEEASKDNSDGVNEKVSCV

[2] = reported by Dong et al., Olson et al., Cameron et al.; cited from earlier work
[3] = Heat-up/cool-down crystallisation screen of sorbate salt (Example 10, Experiments 5, 8); assay type: physicochemical; settings: Experiment 8; repeat of HUCD crystallisations aiming at Pattern #1 (water) and Pattern #6 (heptane/ethyl formate); wet pellet
Protocol: The relevant solvent (0.225 ml, 3.0 vol) was added to the appropriate vial and the suspensions were stirred and warmed to temperature. If dissolution was not observed, further solvent was added until the solute dissolved, or aliquots of a secondary co-solvent were added to complete dissolution. Once dissolved, the solutions were left to cool down and stand undisturbed under sub-ambient conditions for several days. After crystallisation was judged complete, the products were isolated by centrifugation and the pellets were dried at 40° C. under reduced pressure. Products from the crystallisation (wet and dry) were initially analysed by XRPD (9-minute method), further analyses of certain products were performed by ^1H NMR, DSC and TGA, if the diffraction pattern indicated differences.

[4] = as above; assay type: physicochemical; settings: Experiment 8; repeat of HUCD crystallisations; dried ca. 2 h under N2 flux at ambient temperature

Row | SMILES | solubility in typical HPLC sample diluents [1] | 5-HT2A activity (5-HT2A) | hallucinogenic effect [2] | XRPD (centrifuged, wet) [3] | XRPD (under nitrogen flow) [4]
1 | COc1ccc2c3c([nH]c2c1)CCN(C)CC3 [tabernanthalog, 8-methoxy-3-methyl-1,2,3,4,5,6-hexahydroazepino[4,5-b]indole] | insoluble | have 5-HT2A activity | non-hallucinogenic |  | 
2 | CC=CC=CC(=O)O.COc1ccc2c3c([nH]c2c1)CCN(C)CC3 [Experiment 8-Sample B] |  |  |  | Form A | Form A
